Source: patent US11491165B2 (Kinoxis Therapeutics Pty Ltd, priority 2016, dated 2022)

How the values were obtained:
[1] = molecular target: T1, oxytocin receptor (OXTR), hOTR (Homo sapiens, UniProt P30559); assay: IP1 accumulation assay, OTR-expressing HEK-293 cells (agonist and antagonist assessment); assay type: cell-based
T1 construct: expressed in transfected cells
T1 sequence (P30559 1-389): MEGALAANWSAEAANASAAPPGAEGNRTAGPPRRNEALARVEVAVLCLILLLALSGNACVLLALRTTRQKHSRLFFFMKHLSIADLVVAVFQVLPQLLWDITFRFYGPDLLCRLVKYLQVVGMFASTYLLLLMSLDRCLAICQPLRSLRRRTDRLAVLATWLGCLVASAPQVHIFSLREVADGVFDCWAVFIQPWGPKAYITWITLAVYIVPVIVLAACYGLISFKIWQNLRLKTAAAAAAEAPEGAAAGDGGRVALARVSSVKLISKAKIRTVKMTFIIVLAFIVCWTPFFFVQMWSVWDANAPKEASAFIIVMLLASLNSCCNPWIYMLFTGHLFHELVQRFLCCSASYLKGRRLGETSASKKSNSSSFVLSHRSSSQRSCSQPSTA
Description: Human embryonic kidney cells (HEK-293) transfected to stably express untagged hOTR and V1aR using the Flp-In™ T-REx™ system (Life Technologies, Carlsbad, Calif. USA) were established as reported in Jorgensen et al., 2016 (the entire disclosure of which is hereby incorporated by reference). Cells were subsequently maintained in 10% DMEM containing hygromycin (80 μg/ml), penicillin (100 U/ml), streptomycin (0.1 mg/ml) and blasticidine S hydrochloride (15 μg/ml).
OTR or V1aR-expressing HEK-293 cells were seeded onto poly-L-lysine (100 μg/ml)-coated 384-well plates at a density of 8.75×10^3 cells per well. Cells were incubated in tetracycline (2 μg/mL) for 48 h to induce receptor expression. Intracellular IP1 levels induced by activation of the Gq protein coupled to the OTR and V1aR was indexed using the HTRF IP-One kit (CisBio International, Bedford, Mass., USA), according to manufacturer's protocol. For agonist assessment, cells were incubated with logarithmically-spaced concentrations of compounds (1 nM-100 μM) for 1 h prior to the addition of Ab-Cryptate and IP1-d2 for 1 h. The contents of each well were transferred to a white-walled proxy plate (Perkin Elmer) and fluorescence read using a Pherastar Microplate reader (BMG Labtech, Cary, N.C., USA). For antagonist assessment, cells were incubated an ˜EC70 concentration of OT (30 nM) or AVP (25 nM) mixed with compounds (1 nM-100 μM) or vehicle control for 1 h. IP1 levels in the presence of compounds and OT or AVP were expressed as a percentage of levels seen with OT or AVP in the presence of vehicle control. Concentration response curves for OT and AVP were determined after 5 min incubation in drug or vehicle, and the data fitted using GraphPad PRISM to a 4-parameter logistic equation of the form y=Min+(Max−Min)/(1+10^((logEC50−X)*n)) where X is drug concentration and n is the H-ill slope. Data represent the mean±s.d. of at least 3 independent experiments, each in duplicate.

Compound: COc1ccccc1C(=O)N1Cc2cnn(C)c2Nc2ccccc21 [WJ0659, (2-Methoxyphenyl)(1-methyl-4,10-dihydrobenzo[b]pyrazolo[3,4-e][1,4]diazepin-5 (1H)-yl)methanone]
- melting point: 281 to 282 °C (dec.)

Compound: Cn1ncc2c1Nc1ccccc1N(C(=O)c1ccccc1Br)C2 [WJ0822, (2-Bromophenyl)(1-methyl-4,10-dihydrobenzo[b]pyrazolo[3,4-e][1,4]diazepin-5 (1H)-yl)methanone]
- melting point: 244 to 246 °C

Compound: Cn1ncc2c1Nc1ccccc1N(C(=O)c1cccc(Br)c1)C2 [WJ0821, (3-Bromophenyl)(1-methyl-4,10-dihydrobenzo[b]pyrazolo[3,4-e][1,4]diazepin-5 (1H)-yl)methanone]
- melting point: 218 to 220 °C

Compound: Cn1ncc2c1Nc1ccccc1N(C(=O)c1ccc3ccccc3c1)C2 [TRGA-81, (1-methyl-4,10-dihydrobenzo[b]pyrazolo[3,4-e][1,4]diazepin-5 (1H)-yl)(naphthalen-2-yl)methanone]
- melting point: 228 to 243 °C

Compound: Cn1ncc2c1Nc1ccccc1N(C(=O)C13C4C5C6C4C1C6C53)C2 (stereo not drawn) [QB]
- melting point: 194 to 203 °C

Compound: Cn1ncc2c1Nc1ccccc1N(C(=O)c1ccc(C(=O)O)cc1)C2 [TAR-C077, 4-(1-methyl-1,4,5,10-tetrahydrobenzo[b]pyrazolo[3,4-e][1,4]diazepine-5-carbonyl)benzoic acid]
- melting point: > 300 °C

Compound: Cc1cc(C(=O)N2Cc3cnn(C)c3Nc3ccccc32)ccc1CNC(=O)N1CCN(Cc2cc(O)cc(O)c2)CC1 [WAY, reference compound]
- Emax ([1]; HEK293, read-out: OXTR Emax (% OXT)): 45%
- OV function ([1]; ratio of OXTR functional potency to V1aR functional potency, 'OT only' = function at OXTR only): 0.69

Compound: Cn1ncc2c1Nc1ccccc1N(C(=O)c1ccc(O)cc1)C2 [TAR-B049, (4-hydroxyphenyl)(1-methyl-4,10-dihydrobenzo[b]pyrazolo[3,4-e][1,4]diazepin-5 (1H)-yl)methanone]
- melting point: > 300 °C

Compound: CCCCCCOc1ccc(C(=O)N2Cc3cnn(C)c3Nc3ccccc32)cc1 [TAR-B085, (4-(hexyloxy)phenyl)(1-methyl-4,10-dihydrobenzo[b]pyrazolo[3,4-e][1,4]diazepin-5 (1H)-yl)methanone]
- melting point: 204 to 206 °C

Compound: CC1CCC(C(=O)N2Cc3cnn(C)c3Nc3ccccc32)CC1 (stereo not drawn) [TAR-C41, (1-methyl-4,10-dihydrobenzo[b]pyrazolo[3,4-e][1,4]diazepin-5 (1H)-yl)(4-methylcyclohexyl)methanone]
- melting point: 234 to 239 °C

Compound: Cn1ncc2c1Nc1ccccc1N(C(=O)c1ccc(Br)cc1)C2 [WJ0820, (4-Bromophenyl)(1-methyl-4,10-dihydrobenzo[b]pyrazolo[3,4-e][1,4]diazepin-5 (1H)-yl)methanone]
- melting point: 249 to 251 °C

Compound: Cn1ncc2c1Nc1ccccc1N(C(=O)c1cccc3ccccc13)C2 [TRGA-89, (1-methyl-4,10-dihydrobenzo[b]pyrazolo[3,4-e][1,4]diazepin-5 (1H)-yl)(naphthalen-1-YI)methanone]
- melting point: 231 to 233 °C

Compound: COC(=O)C12CCC(C(=O)N3Cc4cnn(C)c4Nc4ccccc43)(CC1)CC2 [BcO-MC, methyl 4-(1-methyl-1,4,5,10-tetrahydrobenzo[b]pyrazolo[3,4-e][1,4]diazepine-5-carbonyl)bicyclo[2.2.2]octane-1-carboxylate]
- melting point: 198 to 211 °C

Compound: Cn1ncc2c1Nc1ccccc1N(C(=O)c1cc(OCc3ccccc3)cc(OCc3ccccc3)c1)C2 [Example 9, (3,5-Bis(benzyloxy)phenyl)(1-methyl-4,10-dihydrobenzo[b]pyrazolo[3,4-e][1,4]diazepin-5 (1H)-yl)methanone]
- melting point: 221 to 224 °C
